Results on six compounds are retold here after patent publication US20240009161A1, “[…] MATERIAL WITH LOW pH AND LOW TOXICITY ACTIVE AGAINST AT LEAST ONE PATHOGEN FOR ADDRESSING PATIENTS WITH RESPIRATORY […]” (priority 2020, published 2024).

“And” between values parts separate entries of the source, which are not always exact repeats. Equal entries are not always repeated. Where two headings read alike, the source gives them in different places.

The test system of one series is SARS-CoV-2 virus. The following applies: hard surfaces, 1 minute, 4% concentration, 2.68 pH; cited from earlier work.
In series [1] the test system is Streptococcus pneumoniae ATCC 6303. The series is described as follows: ASTM E2315 suspension test, 1 minute. The format is cell-based. The procedure:
(§1) In order to assess the antimicrobial efficacy of various acid compounds and combinations, a variety of potential pharmaceutically acceptable fluid formulations within the scope of the present disclosure were evaluated to determine antimicrobial efficacy against common viral, bacterial, and fungal pathogens. These studies were all performed by an ISO 17025 Accredited and GLP Compliant Laboratory. These in vitro tests followed ASTM (American Society of Testing and Materials) standard suspension tests for antimicrobial efficacy. The tests were all performed with a 1-minute contact time based on the pharmacokinetics previously described.
Purpose: Streptococcus pneumoniae is a leading cause of bacterial pneumonia, meningitis, and sepsis, and is estimated to have caused approximately 335,000 (240,000-460,000) deaths in children aged <5 years in 2015 globally. Due to the prevalence and mortality of S. pneumoniae a wide range of acid formulations were tested against this common pathogen to determine what variables may affect efficacy. The purpose of the tests performed was to determine what pH is required to achieve 1 log (90%) efficacy in 1 minute against S. pneumoniae using various acid formulations.

Series [2] deals with Influenza A (H1N1) A/PR/8/34 Strain. The format is cell-based, Influenza A virus.
The next series has as its system Rhinovirus 37. Nature of the series: ASTM E1052 virus suspension test, 1 minute. The series is classed as cell-based. The following applies: 1.66 and 1.90 pH.
The test system of series [3] is Pseudomonas aeruginosa ATCC BAA-2801. The series is described as follows: ASTM E2315 suspension test, 1 minute. The series is classed as cell-based. The procedure: as §1
(§2) Purpose: The first set of in vitro efficacy tests were performed on antibiotic resistant Staphylococcus aureus and Pseudomonas aeruginosa bacteria. These two antibiotic resistant bacterial strains were initially selected since these pathogens represent two broad classes of bacteria. S. aureus is gram-positive and P. aeruginosa is gram-negative. Antibiotic resistant strains of each pathogen are considered some of the deadliest respiratory bacterial strains with limited therapeutic options.
(§3) The as-received pH measurements were of the test materials as received by the test laboratory. The ASTM antimicrobial test procedures mix 9 parts test material with 1 part medium containing the pathogen. The as-applied pH is the pH after mixing, which is what is seen by the pathogen. After the test duration, 1 minute for these tests, the test material is neutralized, and the pathogens are counted and compared with the control.

Series [4] has as its system Haemophilus influenza ATCC 8149. The series is described as follows: ASTM E2315 suspension test, 1 minute. The following applies: 1.99 pH. The format is cell-based. The method, then: as §1
Three other bacteria and three fungi were selected that represent a wide variety of respiratory pathogens.

Series [5] has as its system Klebsiella pneumoniae ATCC 4532. Nature of the series: ASTM E2315 suspension test, 1 minute. The following applies: 1.99 pH. The series is classed as cell-based.
The test system of a further series is L929 mouse cell line. The following applies: for Cytotoxicity Grade: mouse.
Series [6] has as its system Aspergillus fumigatus ATCC 36607. Nature of the series: ASTM E2315 suspension test, 1 minute. The format is cell-based. The following applies: 1.9 pH.
The test system of series [7] is Rhizopus microspores ATCC 52807. Nature of the series: ASTM E2315 suspension test, 1 minute. The format is cell-based. The following applies: 1.9 pH.
Series [8] relates to Mycobacterium terrae ATCC 15755. The format is cell-based.
Series [9] concerns Human Coronavirus, 229E strain, ATCC VR-740. Nature of the series: ASTM E1052 virus suspension test, 1 minute. The format is cell-based. The method, then:
A 1-minute suspension test is considered to be the most representative in vitro test to simulate in vivo efficacy based on previously discussed pharmacokinetics. A 1 log or 90% efficacy target has been chosen with consideration of patient recovery, while minimizing the effective concentration and potential patient risk. In one contemplated method of administration as described in the present disclosure, the material is administered to the patient in need thereof by inhalation by nebulizer. It is contemplated that patients using an inhalation method such as nebulizer administration would be inhaling the therapeutic material comprising a pharmaceutically acceptable fluid as disclosed herein continuously for several minutes in a specific concentration either continuously or in a series of discrete dose intervals with potentially multiple times per day potentially over multiple days. As a result, any reduction in pathogen load in vitro may be compounded in vivo to achieve higher efficacy over the treatment period.
as §1
Purpose: COVID-19 is a global pandemic caused by the SARS-CoV-2 coronavirus. The purpose of these studies was to determine the efficacy of several inorganic acids against the human coronavirus and ascertain the pH required to achieve 1 log efficacy in 1 minute.
SARS-CoV-2 is a beta coronavirus. An alpha coronavirus was used in these studies since this was the closest virus available at the test laboratory. The alpha coronavirus is considered to be representative for efficacy on SARS-CoV-2 for purposes of this investigation.
Due to the larger increase in pH, none of the acids achieved the 1 log efficacy goal.
The EMEM includes live MRC-5 cells which have significant buffer capacity.

The test system of series [10] is Staphylococcus aureus ATCC (MRSA) 33591. The series is described as follows: ASTM E2315 suspension test, 1 minute. The series is classed as cell-based. The following applies: pH 3.1, one minute. The procedure:
as §1, §2, §3

Take `CC(=O)O` [acetic acid, Acetic acid]: in the series on SARS-CoV-2 virus, the Log efficacy is 4 log.
For `Br` [hydrobromic acid, Hydrobromic acid], in [1], the “Effective pH to meet the 1 log efficacy target” value was determined as 1.90 pH.
As for `Cl` [hydrochloric acid, Hydrochloric acid], the “Effective pH to meet the 1 log efficacy target” value in [1] is on record as “approximately 1.87 pH”. For the same compound, the “Efficacy” value in series [1] (1.98 pH) is listed as “no little efficacy”.
For the compound `O=S(=O)(O)O` [sulfuric acid, Sulfuric acid], the “Log efficacy” value in series [2] is listed as over 4 log; in the series on Rhinovirus 37, over 2 log. In addition, the “Effectiveness” value in series [3] (1.9 pH, antibiotic resistant strain) was “effective”; in series [4], “highly effective”; in [5], “highly effective”; in series [1] (1.9 pH), “effective”; in [6], “effective”; in series [7], “effective”. For the same compound, the “Effective pH to meet the 1 log efficacy target” value in [1] is recorded as 1.91 pH. The “Test Results” value in the series with L929 mouse cell line is “No biological reactivity”. Moreover, the “Cytotoxicity Grade” value in the series on L929 mouse cell line (0.12 %), in the series with L929 mouse cell line (0.18 %), in the series on L929 mouse cell line (0.3 %) and in the series with L929 mouse cell line ([…]) was “Grade 0” each time. Further, the “Efficacy %” value in [8] is 25% and 24.56%; in [9] it was 82.11%. The “Efficacy log” value turned out to be 0.12 log in [8] and 0.75 log in series [9]. In addition, the “Efficacy at inactivating human coronavirus” value in [9] is “provides efficacy at inactivating and/or reducing concentration of human coronavirus”. Further, the “In vitro efficacy on human coronavirus” value in [9] is on record as “demonstrated in vitro efficacy on human coronavirus”. In addition, in [9], the “In vitro suspension efficacy, %” value is recorded as 82.11%. Besides, the “In vitro suspension efficacy, log” value in [9] came to 0.75 log.
Regarding Albuterol sulfate [reference compound], in [10], the “Efficacy as 1 log decrease in pathogen count” value was “no efficacy”. Further, the “Effectiveness vs 1 log target” value in series [3] (3.1 pH) is given as “no efficacy”.
As for Polyphosphoric acid, the “Effective pH to meet the 1 log efficacy target” value in series [1] is listed as “approximately 1.85 pH”.
